# Data taken from PubChem BioAssay AID1963874 (Molecular Pharmacology Branch, DTP, NCI, 2024).
# Tested on: 253994-281-T-J1-PDC KRAS-mutant spheroids with HUVEC/MSC, viability
# Experiment: Anticancer human tumor 253994-281-T-J1-PDC patient-derived colorectal carcinoma cell line growth inhibition [KRAS2]
# Conditions: for IC50: curve of first compound; for viability, T/C: stronger effect = lower value
# Outline: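 Combination screen of spheroid viability in tumor-cell co-cultures with endothelial (HUVEC) and mesenchymal stem cell stroma. Each agent was tested in half-log dilutions, topping at clinical Cmax or at 10 microM without a known Cmax.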
# [1] = second compound 0.1 µM, first compound 0.01 µM
# [2] = second compound 0.1 µM, first compound 0.0316 µM
# [3] = second compound 0.1 µM, first compound 0.1 µM
# [4] = second compound 0.1 µM, first compound 0.316 µM
# [5] = second compound 0.1 µM, first compound 1 µM
# [6] = second compound 0.1 µM, first compound 3.16 µM
# [7] = second compound 0.316 µM, first compound 0.01 µM
# [8] = second compound 0.316 µM, first compound 0.0316 µM
# [9] = second compound 0.316 µM, first compound 0.1 µM
# [10] = second compound 0.316 µM, first compound 0.316 µM
# [11] = second compound 0.316 µM, first compound 1 µM
# [12] = second compound 0.316 µM, first compound 3.16 µM
# [13] = second compound 1 µM, first compound 0.01 µM
# [14] = second compound 1 µM, first compound 0.0316 µM
# [15] = second compound 1 µM, first compound 0.1 µM
# [16] = second compound 1 µM, first compound 0.316 µM
# [17] = second compound 1 µM, first compound 1 µM
# [18] = second compound 1 µM, first compound 3.16 µM
# [19] = second compound 3.16 µM, first compound 0.01 µM
# [20] = second compound 3.16 µM, first compound 0.0316 µM
# [21] = second compound 3.16 µM, first compound 0.1 µM
# [22] = second compound 3.16 µM, first compound 0.316 µM
# [23] = second compound 3.16 µM, first compound 1 µM
# [24] = second compound 3.16 µM, first compound 3.16 µM
# [25] = second compound 10 µM, first compound 0.01 µM
# [26] = second compound 10 µM, first compound 0.0316 µM
# [27] = second compound 10 µM, first compound 0.1 µM
# [28] = second compound 10 µM, first compound 0.316 µM
# [29] = second compound 10 µM, first compound 1 µM
# [30] = second compound 10 µM, first compound 3.16 µM
# [31] = second compound 0.1 µM, first compound 10 µM
# [32] = second compound 0.316 µM, first compound 10 µM
# [33] = second compound 1 µM, first compound 10 µM
# [34] = second compound 3.16 µM, first compound 10 µM
# [35] = second compound 10 µM, first compound 10 µM
# 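Also: spheroids exposed to agents for seven days before readout.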
# 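For viability, T/C in this document: percent of DMSO vehicle control viability.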
SMILES,IC50 (second compound 0.1 µM) [nM],IC50 (second compound 0.316 µM) [nM],IC50 (second compound 1 µM) [nM],IC50 (second compound 3.16 µM) [nM],IC50 (second compound 10 µM) [nM],"viability, T/C [2] [%]","viability, T/C [3] [%]","viability, T/C [4] [%]","viability, T/C [5] [%]","viability, T/C [8] [%]","viability, T/C [9] [%]","viability, T/C [10] [%]","viability, T/C [11] [%]","viability, T/C [14] [%]","viability, T/C [15] [%]","viability, T/C [16] [%]","viability, T/C [17] [%]","viability, T/C [20] [%]","viability, T/C [21] [%]","viability, T/C [22] [%]",further results
CC1COCCN1c1cc(-c2ccnn2C)c2ccnc(-c3ccn[nH]3)c2n1 (stereo not given) + COc1cc2nc(C)nc(NC(C)c3cc(N)cc(C(F)(F)F)c3)c2cc1OC1CCOC1,> 3160,169,151,99.6,96.2,72.8,65.3,47.9,52.5,83.2,55.2,39.1,37.6,74.8,56.5,35,40.4,82.5,49.9,37.2,"viability, T/C [1]: 95.2%; viability, T/C [6]: 55.1%; viability, T/C [7]: 88.4%; viability, T/C [12]: 55.6%; viability, T/C [13]: 92.5%; viability, T/C [18]: 54.5%; viability, T/C [19]: 80.6%; viability, T/C [23]: 39%; viability, T/C [24]: 49.2%; viability, T/C [25]: 75.7%; viability, T/C [26]: 74.6%; viability, T/C [27]: 49.2%; viability, T/C [28]: 31.8%; viability, T/C [29]: 41%; viability, T/C [30]: 42.4%"
CC1OCC2(CCN(c3cnc(Sc4ccnc(N)c4Cl)c(N)n3)CC2)C1N (stereo not given) + COc1cc2nc(C)nc(NC(C)c3cc(N)cc(C(F)(F)F)c3)c2cc1OC1CCOC1,> 10000,9310,7650,> 10000,3310,110,86.2,91.9,74.5,87.5,87.6,81.6,68,101,91.2,78.5,74.7,83.6,87.1,90.6,"viability, T/C [6]: 68%; viability, T/C [31]: 48%; viability, T/C [12]: 58.8%; viability, T/C [32]: 48.9%; viability, T/C [18]: 58.8%; viability, T/C [33]: 46.8%; viability, T/C [23]: 78%; viability, T/C [24]: 71.1%; viability, T/C [34]: 52.3%; viability, T/C [26]: 79.2%; viability, T/C [27]: 93.1%; viability, T/C [28]: 67.2%; viability, T/C [29]: 64.2%; viability, T/C [30]: 54.4%; viability, T/C [35]: 26.8%"
CCN1CCN(Cc2ccc(Nc3ncc(F)c(-c4cc(F)c5nc(C)n(C(C)C)c5c4)n3)nc2)CC1 + COc1cc2nc(C)nc(NC(C)c3cc(N)cc(C(F)(F)F)c3)c2cc1OC1CCOC1,390,317,321,236,162,83,62.9,55.3,38.9,74.3,64.4,51.3,33.7,74.7,61.8,53.3,35.5,70.8,57.6,53.3,"viability, T/C (second compound 0.1 µM, first compound 0.00316 µM): 102%; viability, T/C [1]: 93.3%; viability, T/C (second compound 0.316 µM, first compound 0.00316 µM): 79.6%; viability, T/C [7]: 86.8%; viability, T/C (second compound 1 µM, first compound 0.00316 µM): 80.4%; viability, T/C [13]: 90.5%; viability, T/C (second compound 3.16 µM, first compound 0.00316 µM): 90.2%; viability, T/C [19]: 73.9%; viability, T/C [23]: 29.4%; viability, T/C (second compound 10 µM, first compound 0.00316 µM): 78%; viability, T/C [25]: 86.3%; viability, T/C [26]: 72.7%; viability, T/C [27]: 53.8%; viability, T/C [28]: 40.6%; viability, T/C [29]: 8.08%"
CCNC(=O)CC1N=C(c2ccc(Cl)cc2)c2cc(OC)ccc2-n2c(C)nnc21 (stereo not given) + COc1cc2nc(C)nc(NC(C)c3cc(N)cc(C(F)(F)F)c3)c2cc1OC1CCOC1,> 10000,> 10000,7760,5930,3250,99,93.9,78.1,76.5,87.5,97.6,77.9,68.4,92.9,95.4,79.8,69.5,86.3,89.1,78.5,"viability, T/C [6]: 70.5%; viability, T/C [31]: 71.8%; viability, T/C [12]: 73%; viability, T/C [32]: 51.1%; viability, T/C [18]: 61%; viability, T/C [33]: 46.7%; viability, T/C [23]: 70.3%; viability, T/C [24]: 52.7%; viability, T/C [34]: 47.2%; viability, T/C [26]: 82.6%; viability, T/C [27]: 83.2%; viability, T/C [28]: 87.1%; viability, T/C [29]: 62.9%; viability, T/C [30]: 53.4%; viability, T/C [35]: 31.6%"
Cn1nccc1Nc1nccc(-c2cc3c(s2)C(C)(C)N(CCN2CCOCC2)C3=O)n1 + COc1cc2nc(C)nc(NC(C)c3cc(N)cc(C(F)(F)F)c3)c2cc1OC1CCOC1,1100,850,753,507,340,107,89.5,85.2,52.4,92,96.6,78,45.9,92.3,92.1,72.9,41.5,96.5,77.5,62,"viability, T/C [6]: 24.8%; viability, T/C [31]: 19.6%; viability, T/C [12]: 22.8%; viability, T/C [32]: 19%; viability, T/C [18]: 27%; viability, T/C [33]: 17.9%; viability, T/C [23]: 36.9%; viability, T/C [24]: 18.3%; viability, T/C [34]: 14.2%; viability, T/C [26]: 78.7%; viability, T/C [27]: 68.8%; viability, T/C [28]: 54%; viability, T/C [29]: 16.9%; viability, T/C [30]: 7.12%; viability, T/C [35]: 2.36%"
